Laboratory results as given in ChEMBL document CHEMBL1201862, “PubChem BioAssay data set” (2004).
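Following 48 hours of exposure in 96-well plates, responses at five concentrations were used to interpolate endpoints linearly. The concentration for 50% growth inhibition is given as GI50.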 Calls of active or inactive are those of the source. No stated cut-off is given here; in the data, active = GI50 up to about 1.1 µM and inactive = higher.

Legend:
Assay in all cases: NCI tumour cell line growth inhibition, 48 h
[1] = test system: RXF 393
[2] = test system: MOLT-4
[3] = test system: SK-MEL-28
[4] = test system: HOP-92
[5] = test system: OVCAR-4
[6] = test system: SK-MEL-5
[7] = test system: SK-MEL-2
[8] = test system: K562
[9] = test system: UO-31
[10] = test system: SNB-75
[11] = test system: NCI-H226
[12] = test system: SF-539
[13] = test system: SNB-19
[14] = test system: CCRF-CEM
[15] = test system: HL-60
[16] = test system: RPMI-8226
[17] = test system: SF-295
[18] = test system: HCT-116
[19] = test system: UACC-257
[20] = test system: ACHN

Compound	GI50 [1]	GI50 [2]	GI50 [3]	GI50 [4]	GI50 [5]	GI50 [6]	GI50 [7]	GI50 [8]	GI50 [9]	GI50 [10]	GI50 [11]	GI50 [12]	GI50 [13]	GI50 [14]	GI50 [15]	GI50 [16]	GI50 [17]	GI50 [18]	GI50 [19]	GI50 [20]
CNC(=O)C(C)C1CCC2(C)C=CC(=O)C(C)=C2C1O (stereo unspecified)	> 100 µM (inactive)	> 100 µM (inactive)	> 100 µM (inactive)	> 100 µM (inactive)	> 100 µM (inactive)	> 39.6 µM (inactive)	> 100 µM (inactive)	> 100 µM (inactive)	> 43.3 µM (inactive)	> 100 µM (inactive)	> 100 µM (inactive)	> 100 µM (inactive)	> 100 µM (inactive)	> 100 µM (inactive)	> 100 µM (inactive)	> 100 µM (inactive)	> 44.8 µM (inactive)	> 100 µM (inactive)	> 100 µM (inactive)	–
O=C(CC1=NCCN1)c1ccccc1	> 750 µM (inactive)	> 750 µM (inactive)	> 750 µM (inactive)	> 319 µM (inactive)	> 750 µM (inactive)	> 750 µM (inactive)	> 750 µM (inactive)	> 750 µM (inactive)	721 µM (inactive)	> 735 µM (inactive)	> 536 µM (inactive)	> 750 µM (inactive)	> 750 µM (inactive)	> 511 µM (inactive)	455 µM (inactive)	> 750 µM (inactive)	> 750 µM (inactive)	> 750 µM (inactive)	> 750 µM (inactive)	–
O=C(CC1(O)C(=O)Nc2c(Cl)cc(Cl)cc21)c1ccco1 (stereo unspecified)	78 µM (inactive)	15.4 µM (inactive)	> 100 µM (inactive)	36.6 µM (inactive)	15.7 µM (inactive)	77.6 µM (inactive)	60.7 µM (inactive)	30.3 µM (inactive)	98.2 µM (inactive)	29 µM (inactive)	23.3 µM (inactive)	–	> 100 µM (inactive)	24.3 µM (inactive)	20.8 µM (inactive)	23.1 µM (inactive)	32 µM (inactive)	–	> 100 µM (inactive)	83.6 µM (inactive)
COC(=O)c1s/c(=N\C(=S)N(C)C)n(-c2ccccc2)c1C(=O)OC	> 100 µM (inactive)	66.8 µM (inactive)	> 100 µM (inactive)	> 100 µM (inactive)	94 µM (inactive)	> 100 µM (inactive)	> 100 µM (inactive)	> 100 µM (inactive)	> 100 µM (inactive)	52.2 µM (inactive)	> 100 µM (inactive)	> 100 µM (inactive)	> 100 µM (inactive)	–	32.6 µM (inactive)	73.5 µM (inactive)	> 100 µM (inactive)	> 100 µM (inactive)	> 100 µM (inactive)	> 100 µM (inactive)
COc1ccc(C(=O)/C=C/S/C(=N/C#N)SC)cc1	18.2 µM (inactive)	5.77 µM (inactive)	30.2 µM (inactive)	65.5 µM (inactive)	58.9 µM (inactive)	21.8 µM (inactive)	20.5 µM (inactive)	10.7 µM (inactive)	17.9 µM (inactive)	27.9 µM (inactive)	16.5 µM (inactive)	20 µM (inactive)	19.5 µM (inactive)	–	16.6 µM (inactive)	4.33 µM (inactive)	28 µM (inactive)	14.9 µM (inactive)	20.4 µM (inactive)	20.4 µM (inactive)
COc1cc(/C=C/C(=O)O)ccc1C(=O)OCc1ccccc1	> 100 µM (inactive)	> 100 µM (inactive)	> 100 µM (inactive)	> 100 µM (inactive)	> 100 µM (inactive)	> 100 µM (inactive)	> 100 µM (inactive)	> 100 µM (inactive)	> 100 µM (inactive)	> 100 µM (inactive)	> 100 µM (inactive)	> 100 µM (inactive)	> 100 µM (inactive)	> 100 µM (inactive)	> 100 µM (inactive)	> 100 µM (inactive)	> 100 µM (inactive)	> 100 µM (inactive)	> 100 µM (inactive)	–
CN(C)CCNC(=O)c1cccc2cc3cc(O)ccc3nc12	1.11 µM (active)	0.147 µM (active)	1.92 µM (inactive)	0.792 µM (active)	2 µM (inactive)	1.23 µM (inactive)	2.14 µM (inactive)	1.43 µM (inactive)	1.12 µM (active)	1.93 µM (inactive)	0.621 µM (active)	1.11 µM (active)	0.869 µM (active)	0.59 µM (active)	0.355 µM (active)	1.36 µM (inactive)	1 µM (active)	0.558 µM (active)	1.26 µM (inactive)	–
CC(C)C(=O)Nc1cc(C(F)(F)F)ccc1[N+](=O)[O-]	> 100 µM (inactive)	> 100 µM (inactive)	> 100 µM (inactive)	> 100 µM (inactive)	> 100 µM (inactive)	> 100 µM (inactive)	> 100 µM (inactive)	50.9 µM (inactive)	> 100 µM (inactive)	–	> 100 µM (inactive)	> 100 µM (inactive)	> 100 µM (inactive)	> 100 µM (inactive)	94 µM (inactive)	72.8 µM (inactive)	> 100 µM (inactive)	> 100 µM (inactive)	> 100 µM (inactive)	> 100 µM (inactive)
COc1ccc(Br)c(CN2CCc3ccccc32)c1OS(=O)(=O)c1ccc(C)cc1	8.67 µM (inactive)	29.3 µM (inactive)	46 µM (inactive)	18 µM (inactive)	–	–	21.8 µM (inactive)	4.75 µM (inactive)	51.2 µM (inactive)	19.2 µM (inactive)	> 100 µM (inactive)	15.6 µM (inactive)	42.5 µM (inactive)	21.4 µM (inactive)	5.15 µM (inactive)	26.3 µM (inactive)	19.5 µM (inactive)	–	48.2 µM (inactive)	14.7 µM (inactive)
CCCCCCCCCCCCOCCOCCOCCOCCOCCOCC(=O)NC(Cc1ccccc1)C(=O)Oc1ccc([N+](=O)[O-])cc1 (stereo unspecified)	31.8 µM (inactive)	23.2 µM (inactive)	–	26.7 µM (inactive)	40.9 µM (inactive)	31.8 µM (inactive)	23.8 µM (inactive)	41.7 µM (inactive)	26 µM (inactive)	27 µM (inactive)	59 µM (inactive)	36.4 µM (inactive)	47.3 µM (inactive)	31.7 µM (inactive)	21.9 µM (inactive)	23.2 µM (inactive)	39.1 µM (inactive)	31.6 µM (inactive)	29.9 µM (inactive)	27.2 µM (inactive)
Nc1cc(O)c2cc(/N=N/c3ccc(/N=N/c4ccc(/N=N/c5ccc6cc(S(=O)(=O)O)cc(S(=O)(=O)O)c6c5)c5ccccc45)c4cc(S(=O)(=O)O)ccc34)c(S(=O)(=O)O)cc2c1	> 100 µM (inactive)	64.7 µM (inactive)	> 100 µM (inactive)	32.2 µM (inactive)	> 100 µM (inactive)	> 100 µM (inactive)	> 100 µM (inactive)	> 31.6 µM (inactive)	85.9 µM (inactive)	49.1 µM (inactive)	36.7 µM (inactive)	> 100 µM (inactive)	> 100 µM (inactive)	61.5 µM (inactive)	42.3 µM (inactive)	> 100 µM (inactive)	> 53.2 µM (inactive)	> 100 µM (inactive)	> 100 µM (inactive)	–
CC1CCC2C(C(=O)O[C@H]3C4CCO[C@@H](OC5OC(CO)C(O)C(O)C5O)C4[C@@]4(CO)O[C@@H]34)=CO[C@@H](OC3OC(CO)C(O)C(O)C3O)C12 (stereo partly specified)	> 10 µM (inactive)	> 10 µM (inactive)	> 10 µM (inactive)	> 10 µM (inactive)	–	> 10 µM (inactive)	> 10 µM (inactive)	> 10 µM (inactive)	> 10 µM (inactive)	> 10 µM (inactive)	> 10 µM (inactive)	> 10 µM (inactive)	> 10 µM (inactive)	> 10 µM (inactive)	> 10 µM (inactive)	> 10 µM (inactive)	> 10 µM (inactive)	> 10 µM (inactive)	> 10 µM (inactive)	> 10 µM (inactive)
COC(=O)C1=C(O)c2cc3c(cc2[C@H](c2cc(OC)c(OC)c(OC)c2)C1C(=O)OC)OCO3 (stereo partly specified)	30.2 µM (inactive)	58.9 µM (inactive)	52.8 µM (inactive)	33.7 µM (inactive)	30.2 µM (inactive)	32.8 µM (inactive)	–	72.1 µM (inactive)	42.3 µM (inactive)	22.8 µM (inactive)	33 µM (inactive)	20.7 µM (inactive)	> 100 µM (inactive)	> 100 µM (inactive)	> 100 µM (inactive)	> 100 µM (inactive)	57 µM (inactive)	34.7 µM (inactive)	47.3 µM (inactive)	22.1 µM (inactive)
COc1cc(C2c3cc4c(cc3[C@@H](Oc3ccc(F)cc3)C3COC(=O)[C@H]23)OCO4)cc(OC)c1O (stereo partly specified)	0.234 µM (active)	0.359 µM (active)	3.15 µM (inactive)	1.2 µM (inactive)	6.79 µM (inactive)	0.527 µM (active)	–	0.457 µM (active)	> 67.5 µM (inactive)	0.287 µM (active)	0.417 µM (active)	0.209 µM (active)	–	0.368 µM (active)	0.341 µM (active)	0.461 µM (active)	0.807 µM (active)	0.347 µM (active)	0.59 µM (active)	–
